The subject of test [1] is Vγ9/Vδ2 T cells. The settings on record: read-out: EC50 (activator of Vγ9/Vδ2 T cells), cited from earlier work.
Test [2] has as its system Vγ9/Vδ2 T cells. Briefly: In vitro Vγ9/Vδ2 T cell activation assay (PBMCs, CD69+ CD25+ by flow cytometry). It is filed as cell-based, human. The settings on record: Homo sapiens, T-cell, read-out: EC50 (activation of Vγ9/Vδ2 T cells). On the procedure: Subsequently, we studied the ability of these HMBP phosphonodiamidate ProPAgens to activate Vγ9/Vδ2 T cells and elicit their lysis of cancer cells in vitro. For this, peripheral blood mononuclear cells (PBMCs) derived from healthy donors and containing Vγ9/Vδ2 T cells were incubated with increasing concentrations of zoledronate or phosphonodiamidate HMBP ProPAgens 9a–d and 14a–d (up to 100 μM) (Fig. 4). Peripheral blood γδ T cells lack appreciable levels of surface CD69 or CD25 under steady-state conditions, but TCR stimulation upregulates both T cell activation markers.[6] Thus, PAg-responsive Vγ9/Vδ2 T cells were then assessed for the upregulation of CD69 and CD25.
Fig. 4 In vitro phosphonodiamidate ProPAgen-mediated activation of Vγ9/Vδ2 T cells, following overnight incubation with zoledronate, and HMBP ProPAgens 9a–d and 14a–d. Levels of activation are represented as % of Vγ9/Vδ2 T cells that are CD69+ CD25+. Data is shown as mean ± SE (n = 4). (A) Activation of Vγ9/Vδ2 stimulated by phosphonodiamidate ProPAgens 9a–d. (B) Activation of Vγ9/Vδ2 stimulated by ProPAgens 14a–d. (C) Activation of Vγ9Vδ2 stimulated by zoledronate (Zol). (D) EC50 values were calculated using GraphPad Prism v9 based on the results of the activation assay.
As for the activation of Vγ9/Vδ2 T cells by the phosphonodiamidate ProPAgens (9a–d and 14a–d), these were initially tested using a concentration range from […] to 100 μM (Fig. 4A and B).
Healthy donor peripheral blood mononuclear cells (PBMCs) were harvested as previously described.[20] To assess the activation of Vγ9/Vδ2 T cells, PBMCs were seeded into U-bottom tissue culture-treated 96-well plates at a cell density of 500 000 cells per well. The cells were incubated with medium-only (control), in the presence of zoledronate at 10 pM to 100 μM, and with HMBP ProPAgens initially at 10 pM to 100 μM, and then at 1 aM to 100 μM for compounds 9d and 14d in a separate experiment. The cells were incubated at 37 °C/5% CO2 overnight, and stained by flow cytometry for the following markers: viability (Zombie Aqua 1 : 400), CD3 (BV421 1 : 100), CD8 (BV650 1 : 200), Vγ9 (PEcy5 1 : 400), Vδ2 (APC 1 : 200), CD69 (PE 1 : 25), CD25 (FITC 1 : 100). The samples were acquired via LSRFortessa X20 (BD Biosciences), and the data obtained were analyzed using FlowJo v10 and GraphPad Prism v9 software.
In general terms: Flow cytometry measures light scatter and fluorescence of single cells or particles in a stream.

The mark [3] stands for this setting: Fig. 1A legend, no reference given.

This passage reports EC50 results from article PMC11253855, “Phosphonodiamidate prodrugs of phosphoantigens (ProPAgens) exhibit potent Vγ9/Vδ2 T cell activation and eradication of cancer cells” (RSC Medicinal Chemistry, 2024).

Read-outs that look alike come from different tables or passages of the source.

Regarding `C=C(C)CCOP(=O)(O)OP(=O)(O)O` [IPP, isopentenyl pyrophosphate], the EC50 in the test with Vγ9/Vδ2 T cells [1] (setting [3]) is 1 to 10 µM. On to `C/C(=C\CCP(=O)(N[C@@H](C)C(=O)OC(C)C)N[C@@H](C)C(=O)OC(C)C)CO` [14b, Diisopropyl 2,2′-((((E)-5-hydroxy-4-methylpent-3-en-1-yl)phosphoryl)bis(azanediyl))(2S,2′S)-dipropionate], for which the EC50 in the test on Vγ9/Vδ2 T cells [2] is 0.087 µM. On to `C/C(=C\CCP(=O)(N[C@@H](C)C(=O)OC(C)(C)C)N[C@@H](C)C(=O)OC(C)(C)C)CO` [14c, Di-tert-butyl 2,2′-((((E)-5-hydroxy-4-methylpent-3-en-1-yl)phosphoryl)bis(azanediyl))(2S,2′S)-dipropionate], for which the EC50 in the test on Vγ9/Vδ2 T cells [2] was determined as 6.1 µM. Consider `COC(=O)[C@H](C)NP(=O)(N[C@@H](C)C(=O)OC)C(F)(F)C/C=C(\C)CO` [9a, Dimethyl 2,2′-((((E)-1,1-difluoro-5-hydroxy-4-methylpent-3-en-1-yl)phosphoryl)bis(azanediyl))(2S,2′S)-dipropionate], for which, in the test on Vγ9/Vδ2 T cells [2], the EC50 was determined as 0.191 µM. `C/C(=C\COP(=O)(O)OP(=O)(O)O)CO` [HMBPP, (E)-4-hydroxy-3-methyl-but-2-enyl pyrophosphate]: in the test with Vγ9/Vδ2 T cells [1] (setting [3]), the EC50 is 6e-05 to 0.0005 µM. On to `O=P(O)(O)C(O)(Cn1ccnc1)P(=O)(O)O` [Zoledronate, zoledronate], for which the EC50 in the test on Vγ9/Vδ2 T cells [1] (setting [3]) was 0.003 to 3 µM. As to `C/C(=C\COP(=O)(O)O)CO` [HMBP, (E)-4-Hydroxy-3-methylbut-2-enyl monophosphate], the EC50 with Vγ9/Vδ2 T cells [1] is 4 µM.

With `O=P(O)(O)C(O)(Cc1cccnc1)P(=O)(O)O` [risedronate], the EC50 with Vγ9/Vδ2 T cells [1] (setting [3]) was 0.08 to 5 µM. For `C/C(=C\CC(F)(F)P(=O)(N[C@@H](C)C(=O)OC(C)(C)C)N[C@@H](C)C(=O)OC(C)(C)C)CO` [9c, Di-tert-butyl 2,2′-((((E)-1,1-difluoro-5-hydroxy-4-methylpent-3-en-1-yl)phosphoryl)bis(azanediyl))(2S,2′S)-dipropionate], the EC50 in the test on Vγ9/Vδ2 T cells [2] came to 1.5 µM.
